Measured values: US6514709B1, “High throughput screening by measurement of intracellular calcium levels” (Merck & Co., Inc., priority 2000, dated 2003)

Tests used:
[1] = biological target: T1, rat VR1 capsaicin receptor (Rattus norvegicus, UniProt O35433); test: Manual luminescence measurement in VR1 cells, read 2 minutes after agonist; type: cell-based
T1 construct: expressed in transfected cells
Description: Parental HEK293 cell lines expressing apoaequorin (293AEQ17 cells) were used to develop stable clonal cell lines expressing the rat VR1 capsaicin receptor.
Cells were grown to 80-95% confluence in tissue culture flasks (T-225, Corning) and harvested by trypsinization (Trypsin/EDTA, GIBCOBRL). Cells were dispensed (about 1×10^5 cells/0.2 ml/well) into 96-well white clear-bottom BIOCOAT poly-D-lysine plates (BECTON DICKENSON, Bedford, Mass.) in growth media and incubated overnight at 37° C. in a humidified incubator at 10% CO^2.

[2] = biological target: T1, rat VR1 capsaicin receptor; test: Fluo-3 fluorescence calcium response in VR1 cells (VIPR); type: cell-based
Description: (§1) Parental HEK293 cell lines expressing apoaequorin (293AEQ17 cells) were used to develop stable clonal cell lines expressing the rat VR1 capsaicin receptor (Caterina, M. J., Schumacher, M. A., Tominaga, M., Rosen, T. A., Levine, J. D., and Julius, D. (1997) The capsaicin receptor: a heat-activated ion channel in the pain pathway. Nature 389, 816-824). The VR1 293AEQ17 were maintained on growth media containing DMEM (GIBCOBRL, high glucose, with L-glutamine, with 110 mg/L sodium pyruvate, with pyridoxine HCl), 25 mM HEPES (GIBCOBRL, 1M stock), 0.5 mg/mL geneticin (GIBCOBRL, 50 mg/mL stock), 1 μg/mL puromycin (CLONTECH), and 10% fetal bovine serum (GEMINI BIO-PRODUCTS, heat inactivated) at 37° C., 10% CO^2.
Cells were grown to 80-95% confluence in tissue culture flasks (T-225, CORNING) and harvested by trypsinization (Trypsin/EDTA, GIBCOBRL). Cells were dispensed (about 1×10^5 cells/0.2 ml/well) into 96-well black clear-bottom BIOCOAT poly-D-lysine plates (BECTON DICKENSON, Bedford, Mass.) in growth media and incubated overnight at 37° C. in a humidified incubator at 10% CO^2. Cells were washed once with 200 μls of enriched PBS (Dulbecco's PBS (GIBCOBRL #14040-117), 10 mM HEPES, 2 g/L glucose; pH 7.2) and then incubated with 100 μl of 5 μM fluo-3-AM (MOLECULAR PROBES #F1241) with or without of 1,2-bis(o-aminophenoxy)ethane-N,N,N′,N′-tetraacetic acid tetra(acetoxymethyl) ester (BAPTA-AM, MOLECULAR PROBES #B 1205) in enriched PBS containing 0.02% pluronic F-127 (MOLECULAR PROBES #P-3000) for 30-70 minutes. Wells were washed two times with 100 μl of enriched-PBS, and then 100 μl enriched-PBS with or without antagonist was added for 15-30 minutes prior to assay on the AURORA fluorescence plate reader VIPR (ex. 480 nm, em. 535 nm). […] The calcium response was initiated by addition of 100 μl of the indicated concentration of capsaicin (SIGMA #M2028). The VIPR instrument was used to add agonist (in 100 μl enriched-PBS) after recording a 10 sec. baseline and the fluorescence was measured for up to 300 sec.
Changes in intracellular calcium were measured using the fluo-3 dye and detecting the kinetics of the response after addition of the VR1 agonist, capsaicin (0.5 uM) to cells expressing VR1 using a VIPR fluorescence plate reader (FIGS. 5 & 6A).

[3] = system: ligand-gated calcium channel; test: Model aequorin-based functional cellular assay for a ligand-gated calcium channel; type: cell-based; conditions: BAPTA-AM 0-30 uM, after injection of agonist
Description: For this assay, HEK293 cells co-expressing the receptor of interest and apoaequorin were grown to confluence in BIOCOAT poly-D-lysine opaque white 96-well microtiter plates (BECTON DICKINSON). The cells were maintained on a standard growth media. The cells were charged with growth media supplemented with 5 uM of coelenterazine h (MOLECULAR PROBES, Eugene, Oreg.) for 2 hr at 37° C. in a humidified incubator at 5% CO2. The charged cells were then washed and loaded with assay buffer.
Addition of agonist caused the rapid and transient luminescent signal that was complete within 10-15 seconds (FIG. 1). The kinetics of the flash luminescent signal was followed by using a WALLAC MICROBETA JET instrument where agonist was injected directly into the wells containing the charged cells. As a buffering reagent the cell permeable acetoxymethyl ester BAPTA-AM was used. BAPTA is a specific calcium chelator that rapidly binds and releases calcium. […] A schematic representation of this assay appears in FIG. 2.
The addition of increasing levels of BAPTA-AM (0-30 uM) caused an initial delay in the aequorin-based luminescence signal upon injection of agonist and extended the signal far greater than 30 seconds (FIG. 1). The addition of a known receptor antagonist was able to completely block the signal (FIG. 3).

[4] = biological target: T2, endogenous muscarinic receptor (Homo sapiens, UniProt P20309); test: Fluo-4 fluorescence calcium response in HEK-AEQ17 cells (VIPR); type: cell-based; conditions: 3 μM BAPTA-AM, muscimol (10 μM)
T2 construct: stimulated an endogenous muscarinic receptor; endogenous in cells; host or cells: parental HEK293 apoaequorin cells (293AEQ17 / HEK-AEQ17)
Description: The VIPR instrument was used to add agonist (in 100 μl enriched-PBS) after recording a 10 sec. baseline and the fluorescence was measured for up to 300 sec.
Muscimol stimulated an endogenous muscarinic receptor (Moriya, H., Takagi, Y., Nakanishi, T., Hayashi, M., Tani, T., and Hirotsu, I. (1999) Affinity profiles of various muscarinic antagonists for cloned human muscarinic acetylcholine receptor (MACHR) subtypes and MACHRS in rat heart and submandibular gland. Life Sciences 25 2351-2358; Caulfield, M. P. (1993) Muscarinic receptors-characterization, coupling and function. Pharmac. Ther. 58, 319-379)in HEK-AEQ17 cells which gave a robust fluorescence signal when measured with fluo-4 using the VIPR. The kinetics of this calcium transient was different from that measured for either the VR1 or hGHSR1a calcium transient. Activation with muscimol (10 μM) caused a fast transient response, followed by a slower response (FIG. 9A). The fast transient response was very sensitive to BAPTA, and was eliminated by low levels of the chelator (3 μM BAPTA-AM), but a fluorescence signal could be detected under these conditions that was stable for at least 3 minutes. At a higher BAPTA concentration (10 μM BAPTA-AM), the increase in fluorescence was very slow and had not yet stabilized even after 3 minutes.

[5] = biological target: T3, human growth hormone secretagogue receptor type 1a (hGHSR1A) (Homo sapiens, UniProt Q92847); test: Fluo-4 fluorescence calcium response in hGHSR1a cells (VIPR); type: cell-based; conditions: 30 μM BAPTA-AM, 100 nM ghrelin
T3 construct: expressed in transfected cells
Description: Cells were grown to 80-95% confluence in tissue culture flasks (T-225, Corning) and harvested by trypsinization (Trypsin/EDTA, GIBCOBRL). Cells were dispensed (about 1×10^5 cells/0.2 ml/well) into 96-well black clear-bottom BIOCOAT poly-D-lysine plates (BECTON DICKENSON, Bedford, Mass.) in growth media and incubated overnight at 37° C. in a humidified incubator at 10% CO^2. […] Wells were washed two times with 100 μl of enriched-PBS, and then 100 μl enriched-PBS with or without antagonist was added for 15-30 minutes prior to assay on the AURORA fluorescence plate reader VIPR (ex. 480 nm, em. 535 nm). […] The VIPR instrument was used to add agonist (in 100 μl enriched-PBS) after recording a 10 sec. baseline and the fluorescence was measured for up to 300 sec.

[6] = biological target: T1, rat VR1 capsaicin receptor; test: Aequorin luminescence in VR1 cells (WALLAC MICROBETA JET); type: cell-based; conditions: for time to peak response: 0.5 μM capsaicin
Description: as §1, with “receptor.” for “receptor (Caterina, M. J., Schumacher, M. A., Tominaga, M., Rosen, T. A., Levine, J. D., and Julius, D. (1997) The capsaicin receptor: a heat-activated ion channel in the pain pathway. Nature 389, 816-824).”
Cells were grown to 80-95% confluence in tissue culture flasks (T-225, Corning) and harvested by trypsinization (Trypsin/EDTA, GIBCOBRL). Cells were dispensed (about 1×10^5 cells/0.2 ml/well) into 96-well white clear-bottom BIOCOAT poly-D-lysine plates (BECTON DICKENSON, Bedford, Mass.) in growth media and incubated overnight at 37° C. in a humidified incubator at 10% CO^2. Cells were charged with the aequorin substrate, coelenterazine h (MOLECULAR PROBES, #C-6780), by removing the growth media and incubating the cells with 75 μl of charge buffer (DMEM GIBCOBRL #12320-032; 0.1% FBS GEMINI BIO-PRODUCTS, Inc. #100-107;5 μM coelenterazine h; 30 μM reduced glutathione) for 2 hours at 37° C., 10% CO^2. The charge buffer was then removed and the cells were washed twice with 100 μl of enriched-PBS (pH 7.2) and then incubated with 100 μl of enriched-PBS supplemented with 0-30 μM BAPTA-AM for 30-120 min at 37° C., 10% CO^2. The cells were then washed and loaded with […] of enriched-PBS with or without the indicated antagonist. The calcium response was initiated by addition of 100 μl of the indicated concentration of capsaicin (SIGMA #M2028) to the wells by a WALLAC MICROBETA JET. In order to obtain more consistent kinetics, the Jet was set to simultaneously read only six wells per determination.
For these experiments, the kinetics of the flash luminescence were followed using a WALLAC MICROBETA JET luminometer that injects reagent and records light emission from six wells of a 96-well plate simultaneously.

[7] = biological target: T3, human growth hormone secretagogue receptor type 1a (hGHSR1A); test: Aequorin luminescence in hGHSR1A cells (WALLAC MICROBETA JET); type: cell-based; conditions: 30 μM BAPTA-AM, 100 nM ghrelin
Description: Cells were charged with the aequorin substrate, coelenterazine h (MOLECULAR PROBES, #C-6780), by removing the growth media and incubating the cells with 75 μl of charge buffer (DMEM GIBCOBRL#12320-032; 0.1% FBS GEMINI BIO-PRODUCTS, Inc. #100-107; 5 μM coelenterazine h; 30 μM reduced glutathione) for 2 hours at 37° C., 10% CO^2. […] The cells were then washed and loaded with 100 μl of enriched-PBS with or without the indicated antagonist. […] In order to obtain more consistent kinetics, the Jet was set to simultaneously read only six wells per determination.

[8] = system: ionomycin-induced calcium influx; conditions: presence of BAPTA-AM; cited from earlier work
[9] = biological target: T3, human growth hormone secretagogue receptor type 1a (hGHSR1A); test: Manual luminescence measurement in hGHSR1a cells, read 2 minutes after agonist; type: cell-based; conditions: 2 minutes after 100 nM ghrelin, with BAPTA
Description: Parental HEK293 cell lines expressing apoaequorin (293AEQ17 cells) were used to develop stable clonal cell lines expressing the human growth hormone secretagogue receptor type 1a (hGHSR1A).
Cells were charged with the aequorin substrate, coelenterazine h (MOLECULAR PROBES, #C-6780), by removing the growth media and incubating the cells with 75 μl of charge buffer (DMEM GIBCOBRL #12320-032; 0.1% FBS GEMINI BIO-PRODUCTS, Inc. #100-107;5 μM coelenterazine h; 30 μM reduced glutathione) for 2 hours at 37° C., 10% CO^2. […] The cells were then washed and loaded with 100 μl of enriched-PBS with or without the indicated antagonist. […] The WALLAC MICROBETA JET was used to measure 10 sec of luminescence after a delay of 2 minutes.
J. Med Chem. 43 4370-4376). […] After a lapse of two minutes, the plates were read using the WALLAC MICROBETA JET luminometer. […] These complex dose-response curves were observed both in the presence and absence of BAPTA. Yet overall, the addition of BAPTA increased the luminescence such that a 6-fold signal over background could be measured 2 minutes after stimulation with agonist.

[10] = 0.5 uM capsaicin, absence of BAPTA

T3 sequence (Q92847 whole entry): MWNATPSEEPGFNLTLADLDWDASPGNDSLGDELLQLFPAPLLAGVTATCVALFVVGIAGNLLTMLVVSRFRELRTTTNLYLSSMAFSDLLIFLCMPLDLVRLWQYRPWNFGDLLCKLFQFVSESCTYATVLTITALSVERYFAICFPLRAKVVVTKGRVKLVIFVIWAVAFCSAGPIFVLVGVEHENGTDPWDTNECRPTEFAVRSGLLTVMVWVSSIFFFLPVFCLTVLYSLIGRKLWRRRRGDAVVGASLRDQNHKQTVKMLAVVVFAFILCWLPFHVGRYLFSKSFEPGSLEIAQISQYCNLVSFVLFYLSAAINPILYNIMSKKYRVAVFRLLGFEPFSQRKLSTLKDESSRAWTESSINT
T1 sequence (O35433 whole entry): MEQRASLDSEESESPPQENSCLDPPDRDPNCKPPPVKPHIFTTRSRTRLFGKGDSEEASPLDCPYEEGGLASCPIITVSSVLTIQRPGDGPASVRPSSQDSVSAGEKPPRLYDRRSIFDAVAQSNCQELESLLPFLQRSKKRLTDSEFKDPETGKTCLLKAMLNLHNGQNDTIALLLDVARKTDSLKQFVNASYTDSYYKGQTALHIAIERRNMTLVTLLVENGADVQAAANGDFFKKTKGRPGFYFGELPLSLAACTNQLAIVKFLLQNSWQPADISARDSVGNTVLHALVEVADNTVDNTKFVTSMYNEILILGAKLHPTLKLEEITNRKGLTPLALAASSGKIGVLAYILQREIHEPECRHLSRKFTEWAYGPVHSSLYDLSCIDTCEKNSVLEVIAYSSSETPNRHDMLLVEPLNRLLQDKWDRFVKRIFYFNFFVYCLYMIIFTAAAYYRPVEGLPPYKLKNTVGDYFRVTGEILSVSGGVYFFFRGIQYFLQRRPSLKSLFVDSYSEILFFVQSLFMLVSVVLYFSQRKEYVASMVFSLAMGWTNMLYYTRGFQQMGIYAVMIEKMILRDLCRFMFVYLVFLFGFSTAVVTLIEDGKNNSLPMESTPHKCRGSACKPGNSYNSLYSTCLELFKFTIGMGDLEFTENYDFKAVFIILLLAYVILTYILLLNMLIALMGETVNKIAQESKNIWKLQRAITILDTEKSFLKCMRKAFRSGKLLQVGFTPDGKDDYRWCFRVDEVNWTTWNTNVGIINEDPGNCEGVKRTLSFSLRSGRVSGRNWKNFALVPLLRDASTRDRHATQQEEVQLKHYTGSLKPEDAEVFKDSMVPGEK
T2 sequence (P20309 whole entry): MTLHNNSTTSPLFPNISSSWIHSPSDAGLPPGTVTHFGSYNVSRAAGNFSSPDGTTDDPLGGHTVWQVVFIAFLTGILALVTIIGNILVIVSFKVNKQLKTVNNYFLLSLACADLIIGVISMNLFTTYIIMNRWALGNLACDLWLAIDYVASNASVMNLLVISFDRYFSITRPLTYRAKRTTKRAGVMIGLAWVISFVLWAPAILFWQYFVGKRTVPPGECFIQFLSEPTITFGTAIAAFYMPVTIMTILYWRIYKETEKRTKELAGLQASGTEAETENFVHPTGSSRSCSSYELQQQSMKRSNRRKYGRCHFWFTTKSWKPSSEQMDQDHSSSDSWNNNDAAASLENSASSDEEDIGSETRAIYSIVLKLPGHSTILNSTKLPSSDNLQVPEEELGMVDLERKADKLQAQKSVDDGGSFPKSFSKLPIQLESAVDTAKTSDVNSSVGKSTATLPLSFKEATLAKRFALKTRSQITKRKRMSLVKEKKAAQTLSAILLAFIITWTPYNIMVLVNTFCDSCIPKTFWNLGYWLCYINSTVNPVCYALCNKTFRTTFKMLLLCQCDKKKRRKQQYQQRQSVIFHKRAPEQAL

Oc1cc2c(cc1O)CN(C(=S)NCCc1ccc(Cl)cc1)CCC2 [capsazepine]
block of luminescence signal ([1]; higher concentrations of antagonist, 0.5 uM capsaicin, with and without BAPTA): completely blocked | block of capsaicin response ([2]; 20 μM capsazepine, 0.5 uM capsaicin): completely blocked

CC(=O)OCOC(=O)CN(CC(=O)OCOC(C)=O)c1ccccc1OCCOc1ccccc1N(CC(=O)OCOC(C)=O)CC(=O)OCOC(C)=O [BAPTA-AM, 1,2-bis(o-aminophenoxy)ethane-N,N,N′,N′-tetraacetic acid tetra(acetoxymethyl)ester]
duration of extended luminescence signal [3]: greater than 30 seconds | duration of stable fluorescence signal [4]: at least 3 minutes | effect on fast transient response [4]: eliminated | duration of stable fluorescent signal [5]: up to 5 minutes | time to peak fluorescence response [5]: 150 s | total signal at a given agonist concentration ([6]; 0 μM to 30 μM BAPTA-AM): did not significantly vary | time to peak response ([6]; 30 μM BAPTA-AM): 10 s | duration of extended luminescence signal ([6]; BAPTA-AM 0-30 μM, 50 nM capsaicin, maximum time recorded): up to 3 minutes | time of maximum luminescence response ([6]; increasing BAPTA-AM 0-30 μM, 50 nM capsaicin): 30 s | time to peak fluorescence signal ([2]; 3 μM BAPTA-AM for 30 minutes, 0.5 uM capsaicin): about 40 sec | fluo-3 signal decay time ([2]; 3 μM BAPTA-AM, 0.5 uM capsaicin): about 150 s | peak response time ([2]; 10 and 30 μM BAPTA-AM, 0.5 uM capsaicin): up to 100 sec | luminescence signal relative to the response in the absence of BAPTA [7]: about 5% | time to reach the maximum light emission [7]: 75 s | slowing of calcium transients [8]: up to 8 fold

O=C(O)CN(CC(=O)O)c1ccccc1OCCOc1ccccc1N(CC(=O)O)CC(=O)O [BAPTA]
signal over background [9]: 6 fold | signal over background ([1]; 2 minutes after 0.5 uM capsaicin, with BAPTA): 4 fold | effect on peak signal ([2]; 3 μM BAPTA, 0.1 μM capsaicin): decreased the peak signal

COc1cc(CNC(=O)CCCC/C=C/C(C)C)ccc1O [capsaicin]
time for luminescence signal to be largely complete ([6]; 50 nM capsaicin, no BAPTA): ≤ 30 s | time to peak luminescence ([6]; 50 nM capsaicin, no BAPTA): about 10 sec | time to peak response ([6]; no BAPTA): about 5 sec | time to decay to 50% [2, 10]: about 150 sec | time to peak fluorescence response [2, 10]: about 20 sec
